Measured values from US11229651B2, “Prophylaxis and treatment of a neurodegenerative disease not based on a protein-folding disorder” (Eberhard Karls Universität Tübingen Medizinische Fakultät, priority 2013, dated 2022).

What was measured:
[1] = test system: photoreceptors of cultivated retinas from rats mutated in the rhodopsin (P23H); experiment: TUNEL assay on retinal organ cultures from P23H rhodopsin transgenic rats; assay type: cell-based, rat; settings: for amount of dying photoreceptors (percentage of TUNEL positive cells in the outer nuclear layer (ONL) vs total nuclei in the ONL): P23H mutant retinal cultures, PN9 + 6 days in vitro, compared with untreated and DMSO treated controls, FIG. 3A; for survival of photoreceptors in radial sections: P23H retinal organ cultures, compared with DMSO control, FIG. 2
From the text: Homozygous P23H rhodopsin transgenic rats (produced by Chrysalis DNX Transgenic Sciences, Princeton, N.J., United States of America) of the line Tg (P23H) 1 Lay (P23H-1) were kindly provided by Dr. M. M. LaVail (University of California, San Francisco, Calif., United States of America) and bred in the Animal Housing Facility in the Center for Ophthalmology in Tübingen. Heterozygous P23H rats were employed, obtained by crossing with wt, CD rats (CDH IGS rat; Charles River, Germany) to reflect the genetic background of autosomal-dominant retinitis pigmentosa (ADRP).
Retinas of postnatal day 9 (PN9) of P23H transgenic rats were cultivated for six days (DIVE) that correspond to PN15, i.e. the peak of degeneration in in vivo aged-matched mutants. The day of birth was denoted as P0. For radial sections, cultures were immersed in 4% paraformaldehyde in 0.1 M phosphate buffer (PB; pH 7.4) for 30 minutes at 4° C. and embedded in cryomatrix (Tissue-Tek, Leica, Bensheim, Germany). The radial sections (15 μm thick) were processed immediately or stored at […]
The retinas were isolated from nine-days-old P23H rats with the retinal pigment epithelium (RPE) attached essentially as described previously in Caffe et al. (2001), “Mouse retina explants after long-term culture in serum free medium”, J. Chem. Neuroanat. 22(4): 263-73, and Arango-Gonzalez et al. (2010), “In vivo and in vitro devel-opment of S- and M-cones in rat retina”, Invest. Ophthalmol. Vis. Sci. 2010 October; 51(10):5320-7. Briefly, the eyes of decapitated rats were enucleated in aseptic environment and pretreated with 12% proteinase K (ICN Biomedicals Inc., OH, United States of America) for 15 minutes at 37° C. in R16 serum-free culture medium (Invitrogen Life Technologies, Paisley, United Kingdom). The enzymatic digestion was stopped by the addition of 20% fetal bovine serum. Retina and RPE were dissected and four radial sections were made to flatten the tissue. The tissue was transferred to a 0.5 μm polycar-bonate membrane (Corning Life Sciences, Lowell, Mass., United States of America), with the RPE facing the membrane. The inserts were placed into six well culture plates and incubated with R16 nutrient medium at 36.5° C. The retina was left in R16 culture medium without a treatment for one day to allow an adaptation to the culture conditions. The medium was changed at DIV1, DIV3, and DIV5, and the new medium either contained ML240 (1 μM or […]) or EerII (1 μM or 20 μM). Both components were pre-diluted in dimethyl sulfoxide (DMSO, Sigma). For controls, the same amount of DMSO (0.05% or 1% respectively) was diluted in culture medium. The cultures were fixed at DIVE and analyzed as radial sections. […]

[2] = test system: photoreceptors of cultivated retinas from wild-type rats; experiment: TUNEL assay on retinal organ cultures from wild-type rats; assay type: cell-based, rat; settings: for reduction of percentage of TUNEL positive cells in the ONL: WT cultivated retinas, compared with controls, FIG. 3B, **p<0.01, ***p<0.001; for survival of photoreceptors in radial sections: wild-type retinal organ cultures, compared with DMSO control, FIG. 2

Structure (SMILES) | amount of dying photoreceptors (percentage of TUNEL positive cells in the outer nuclear layer (ONL) vs total nuclei in the ONL) [1] | survival of photoreceptors in radial sections [1] | reduction of percentage of TUNEL positive cells in the ONL [2] | survival of photoreceptors in radial sections [2]
CC1(C)C(N(O)C(=O)Nc2ccc(Cl)cc2)N(c2ccc(Cl)cc2)C(=O)N1CC(=O)N/N=C/C=C/c1ccc([N+](=O)[O-])o1 (centres unmarked) [EerI, Eeyarestatin I] | significantly reduce | significant increase of the survival | not significantly | significant increase of the survival
COc1cccc2c(NCc3ccccc3)nc(-n3c(N)nc4ccccc43)nc12 [ML240] | significantly reduce | significant increase of the survival | significantly | significant increase of the survival
